# Laboratory results: patent US12459974B2, “Bicyclic peptide ligands specific for Nectin-4” (priority 2018, dated 2025)
# *1 amine or outer side, *2 acyl side, *3 side chain or, on linkers, in order; H or OH if unused. Where a SMILES comes first, the peptide text is derived from it. Bridges are numbered along the chain shown (N, C = ends). TATA = O=C(CC[*:1])N1CN(C(=O)CC[*:2])CN(C(=O)CC[*:3])C1
# Target: T1, human Nectin-4 (Homo sapiens, UniProt Q96NY8)
# T1 sequence (Q96NY8 32-510): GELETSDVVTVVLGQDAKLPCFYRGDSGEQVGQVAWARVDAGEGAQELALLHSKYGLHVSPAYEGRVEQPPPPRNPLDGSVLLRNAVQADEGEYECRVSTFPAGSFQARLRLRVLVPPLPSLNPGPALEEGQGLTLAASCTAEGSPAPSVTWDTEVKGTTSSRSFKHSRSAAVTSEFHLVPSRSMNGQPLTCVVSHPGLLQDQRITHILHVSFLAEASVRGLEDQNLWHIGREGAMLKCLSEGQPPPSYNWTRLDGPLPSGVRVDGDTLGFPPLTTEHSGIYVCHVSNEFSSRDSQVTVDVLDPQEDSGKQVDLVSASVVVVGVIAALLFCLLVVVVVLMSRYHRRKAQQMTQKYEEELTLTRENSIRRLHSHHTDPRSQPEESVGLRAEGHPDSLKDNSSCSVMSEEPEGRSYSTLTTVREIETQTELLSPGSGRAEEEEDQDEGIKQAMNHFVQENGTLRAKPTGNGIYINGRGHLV
# Experiment: Nectin-4 competition binding assay (fluorescence polarisation)
# Conditions: not given
# Procedure: Peptides were diluted to an appropriate concentration in assay buffer as described in the direct binding assay with a maximum of 5% DMSO, then serially diluted 1 in 2. Five μL of diluted peptide was added to the plate followed by 10 μL of human Nectin-4, then 10 μL fluorescent peptide added. Measurements were conducted as for the direct binding assay, however the gain was determined prior to the first measurement. Data analysis was in Systat Sigmaplot version 12.0 where the mP values were fit to a user defined cubic equation to generate a Ki value: • f=ymin+(ymax−ymin)/Lig*((Lig*((2*((Klig+Kcomp+Lig+Comp-Prot*c)^2-3*(Kcomp*(Lig-Prot*c)+Klig*(Comp-Prot*c)+Klig*Kcomp))^0.5*COS(ARCCOS((−2*(Klig+Kcomp+Lig+Comp-Prot*c)^3+9*(Klig+Kcomp+Lig+Comp-Prot*c)*(Kcomp*(Lig-Prot*c)+Klig*(Comp-Prot*c)+Klig*Kcomp)−27*(−1*Klig*Kcomp*Prot*c)/(2*((((Klig+Kcomp+Lig+Comp-Prot*c)^2−3*(Kcomp*(Lig-Prot*c)+Klig*(Comp-Prot*c)+Klig*Kcomp))^3)^0.5)))/3))−(Klig+Kcomp+Lig+Comp-Prot*c)))/((3*Klig)+((2*((Klig+Kcomp+Lig+Comp-Prot*c)^2−3*(Kcomp*(Lig-Prot*c)+Klig*(Comp-Prot*c)+Klig*Kcomp))^0.5*COS (ARCCOS ((−2*(Klig+Kcomp+Lig+Comp-Prot*c)^3+9*(Klig+Kcomp+Lig+Comp-Prot*c)*(Kcomp*(Lig-Prot*c)+Klig*(Comp-Prot*c)+Klig*Kcomp)-27*(−1*Klig*Kcomp*Prot*c))/(2*((((Klig+Kcomp+Lig+Comp-Prot*c)^2-3*(Kcomp*(Lig-Prot*c)+Klig*(Comp-Prot+c)+Klig*Kcomp))^3)^0.5))/3)−(Klig+Kcomp+Lig+Comp-Prot*c)))).
# “Lig”, “KLig” and “Prot” were all defined values relating to: fluorescent peptide concentration, the Kd of the fluorescent peptide and Nectin concentration respectively.
row,SMILES,Ki [µM]
1,"CC[C@H](C)[C@@H]1NC(=O)[C@@H]2CCCN2C(=O)[C@H](Cc2c[nH]c3ccccc23)NC(=O)[C@H](CO)NC(=O)[C@H](Cc2c[nH]c3ccccc23)NC(=O)[C@H](CC(N)=O)NC(=O)[C@H](CCCCN)NC(=O)[C@H](CCSC)NC(=O)[C@@H]2CSCCC(=O)N3CN(CN(C3)C(=O)CCSC[C@H](NC(=O)[C@H](C)N)C(=O)N3CCC[C@H]3C(=O)N[C@@H](Cc3ccccc3)C(=O)N[C@@H](C)C(=O)N2)C(=O)CCSC[C@@H](C(=O)N[C@H](C(=O)N[C@@H](CC(N)=O)C(=O)N[C@@H](CCCCN)C(N)=O)[C@@H](C)O)NC(=O)[C@H](Cc2c[nH]c3ccccc23)NC1=O [BCY7354, A-(SEQ ID NO: 6)-TNK]",0.884

# Same assay, conditions: competition with fluorescent peptide SEQ ID NO: 217; read-out: Ki
row,SMILES,Ki [µM]
1,"CC[C@H](C)[C@@H]1NC(=O)[C@@H]2CCCN2C(=O)[C@H](Cc2c[nH]c3ccccc23)NC(=O)[C@H](CO)NC(=O)[C@H](Cc2c[nH]c3ccccc23)NC(=O)[C@H](CO)NC(=O)[C@H](CCCCN)NC(=O)[C@H](CCSC)NC(=O)[C@@H]2CSCCC(=O)N3CN(CN(C3)C(=O)CCSC[C@H](NC(=O)[C@H](CO)NC(=O)[C@H](CC(=O)O)NC(=O)[C@@H](N)Cc3c[nH]cn3)C(=O)N3CCC[C@H]3C(=O)N[C@@H](Cc3ccccc3)C(=O)NCC(=O)N2)C(=O)CCSC[C@@H](C(=O)N[C@@H](C)C(N)=O)NC(=O)[C@H](Cc2c[nH]c3ccccc23)NC1=O [BCY3393, HDS-(SEQ ID NO: 51)-A] (H-HDSCPFGCMKSWSWPIWCA-NH2; linker 4-8-18 via TATA)",0.173
2,"CC[C@H](C)[C@@H]1NC(=O)[C@@H]2CCCN2C(=O)[C@H](Cc2c[nH]c3ccccc23)NC(=O)[C@H](CO)NC(=O)[C@H](Cc2c[nH]c3ccccc23)NC(=O)[C@H]([C@@H](C)O)NC(=O)[C@H](CCCCN)NC(=O)[C@H](CCSC)NC(=O)[C@@H]2CSCCC(=O)N3CN(CN(C3)C(=O)CCSC[C@H](NC(=O)[C@H](C)N)C(=O)N3CCC[C@H]3C(=O)N[C@@H](Cc3ccccc3)C(=O)NCC(=O)N2)C(=O)CCSC[C@@H](C(=O)N[C@H](C(=O)N[C@@H](CC(=O)O)C(=O)N[C@@H](CCCCN)C(N)=O)[C@@H](C)O)NC(=O)[C@H](Cc2c[nH]c3ccccc23)NC1=O [BCY3394, A-(SEQ ID NO: 52)-TDK] (H-ACPFGCMKTWSWPIWCTDK-NH2; linker 2-6-16 via TATA; N-terminus and C-terminus assumed)",0.102
3,"CC[C@H](C)[C@@H]1NC(=O)[C@@H]2CCCN2C(=O)[C@H](Cc2c[nH]c3ccccc23)NC(=O)[C@H](CO)NC(=O)[C@H](Cc2c[nH]c3ccccc23)NC(=O)CNC(=O)[C@H](CCCCN)NC(=O)[C@H](CCSC)NC(=O)[C@@H]2CSCCC(=O)N3CN(CN(C3)C(=O)CCSC[C@H](NC(=O)[C@H](C)N)C(=O)N3CCC[C@H]3C(=O)N[C@@H](Cc3ccccc3)C(=O)NCC(=O)N2)C(=O)CCSC[C@@H](C(=O)N[C@@H](CC(C)C)C(=O)N[C@@H](CCCCN)C(=O)N[C@@H](CC(=O)O)C(N)=O)NC(=O)[C@H](Cc2c[nH]c3ccccc23)NC1=O [BCY3395, A-(SEQ ID NO: 53)-LKD] (H-ACPFGCMKGWSWPIWCLKD-NH2; linker 2-6-16 via TATA; N-terminus and C-terminus assumed)",0.0174
4,"CC[C@H](C)[C@@H]1NC(=O)[C@@H]2CCCN2C(=O)[C@H](Cc2c[nH]c3ccccc23)NC(=O)[C@H](CO)NC(=O)[C@H](Cc2c[nH]c3ccccc23)NC(=O)[C@H](Cc2c[nH]cn2)NC(=O)[C@H](CCC(=O)O)NC(=O)[C@H](CCC(N)=O)NC(=O)[C@@H]2CSCCC(=O)N3CN(CN(C3)C(=O)CCSC[C@H](NC(=O)[C@H](C)N)C(=O)N3CCC[C@H]3C(=O)N[C@@H](Cc3ccccc3)C(=O)NCC(=O)N2)C(=O)CCSC[C@@H](C(=O)N[C@H](C(=O)N[C@H](C(=O)N[C@@H](C)C(N)=O)[C@@H](C)O)[C@@H](C)O)NC(=O)[C@H](Cc2c[nH]c3ccccc23)NC1=O [BCY3396, A-(SEQ ID NO: 54)-TTA] (H-ACPFGCQEHWSWPIWCTTA-NH2; linker 2-6-16 via TATA; N-terminus and C-terminus assumed)",0.102
5,"CC[C@H](C)[C@@H]1NC(=O)[C@@H]2CSCCC(=O)N3CN(CN(C3)C(=O)CCSC[C@H](NC(=O)[C@H](C)N)C(=O)N3CCC[C@H]3C(=O)N[C@@H](Cc3ccccc3)C(=O)NCC(=O)N2)C(=O)CCSC[C@@H](C(=O)N[C@@H](CCC(N)=O)C(=O)N[C@@H](CCSC)C(=O)N[C@@H](CCC(=O)O)C(N)=O)NC(=O)[C@H](Cc2c[nH]c3ccccc23)NC(=O)[C@H]([C@@H](C)CC)NC(=O)[C@@H]2CCCN2C(=O)[C@H](Cc2c[nH]c3ccccc23)NC(=O)[C@H](CO)NC(=O)[C@H](Cc2c[nH]c3ccccc23)NC(=O)[C@H](CO)NC(=O)[C@H](CCCCN)NC1=O [BCY3397, A-(SEQ ID NO: 55)-QME] (H-ACPFGCIKSWSWPIWCQME-NH2; linker 2-6-16 via TATA; N-terminus and C-terminus assumed)",0.0332
6,"CC[C@H](C)[C@@H]1NC(=O)[C@@H]2CCCN2C(=O)[C@H](Cc2c[nH]c3ccccc23)NC(=O)[C@H](CO)NC(=O)[C@H](Cc2c[nH]c3ccccc23)NC(=O)[C@H](CC(=O)O)NC(=O)[C@H](CCC(=O)O)NC(=O)[C@H](CCC(N)=O)NC(=O)[C@@H]2CSCCC(=O)N3CN(CN(C3)C(=O)CCSC[C@H](NC(=O)[C@H](C)N)C(=O)N3CCC[C@H]3C(=O)N[C@@H](Cc3ccccc3)C(=O)NCC(=O)N2)C(=O)CCSC[C@@H](C(=O)N[C@@H](CC(C)C)C(=O)N[C@@H](CO)C(=O)N[C@@H](CCC(=O)O)C(N)=O)NC(=O)[C@H](Cc2c[nH]c3ccccc23)NC1=O [BCY3398, A-(SEQ ID NO: 56)-LSE] (H-ACPFGCQEDWSWPIWCLSE-NH2; linker 2-6-16 via TATA; N-terminus and C-terminus assumed)",0.164
7,"CC[C@H](C)[C@@H]1NC(=O)[C@@H]2CCCN2C(=O)[C@H](Cc2c[nH]c3ccccc23)NC(=O)[C@H](CO)NC(=O)[C@H](Cc2c[nH]c3ccccc23)NC(=O)[C@H](CC(=O)O)NC(=O)[C@H](CO)NC(=O)[C@H](CCSC)NC(=O)[C@@H]2CSCCC(=O)N3CN(CN(C3)C(=O)CCSC[C@H](NC(=O)[C@H](C)N)C(=O)N3CCC[C@H]3C(=O)N[C@@H](Cc3ccccc3)C(=O)NCC(=O)N2)C(=O)CCSC[C@@H](C(=O)N[C@@H](CO)C(=O)N[C@H](C(=O)N[C@@H](CC(=O)O)C(N)=O)[C@@H](C)O)NC(=O)[C@H](Cc2c[nH]c3ccccc23)NC1=O [BCY3399, A-(SEQ ID NO: 57)-STD] (H-ACPFGCMSDWSWPIWCSTD-NH2; linker 2-6-16 via TATA; N-terminus and C-terminus assumed)",0.41
8,"CC[C@H](C)[C@@H]1NC(=O)[C@H](CCCNC(=N)N)NC(=O)[C@@H]2CCCN2C(=O)[C@@H]2CSCCC(=O)N3CN(CN(C3)C(=O)CCSC[C@@H](C(=O)N3CCC[C@H]3C(=O)N[C@@H](CCC(N)=O)C(=O)N[C@@H](C)C(N)=O)NC1=O)C(=O)CCSC[C@H](NC(=O)[C@H](C)N)C(=O)N[C@@H](Cc1c[nH]c3ccccc13)C(=O)N1CCC[C@H]1C(=O)N[C@@H](CC(C)C)C(=O)N[C@@H](CC(=O)O)C(=O)N[C@@H](CC(=O)O)C(=O)N[C@@H](Cc1ccc(O)cc1)C(=O)N[C@@H](Cc1c[nH]c3ccccc13)C(=O)N2 [BCY3401, A-(SEQ ID NO: 58)-PQA] (H-ACWPLDDYWCPRICPQA-NH2; linker 2-10-14 via TATA; N-terminus and C-terminus assumed)",0.154
9,"CC[C@H](C)[C@@H]1NC(=O)[C@@H]2CCCN2C(=O)[C@H](Cc2c[nH]c3ccccc23)NC(=O)[C@H](CO)NC(=O)[C@H](Cc2c[nH]c3ccccc23)NC(=O)[C@H](CC(N)=O)NC(=O)[C@H](CCCCN)NC(=O)[C@H](CCSC)NC(=O)[C@@H]2CSCCC(=O)N3CN(CN(C3)C(=O)CCSC[C@H](NC(=O)[C@H](C)N)C(=O)N3CCC[C@H]3C(=O)N[C@@H](Cc3ccccc3)C(=O)NCC(=O)N2)C(=O)CCSC[C@@H](C(=O)N[C@H](C(=O)N[C@@H](CC(N)=O)C(=O)N[C@@H](C)C(N)=O)[C@@H](C)O)NC(=O)[C@H](Cc2c[nH]c3ccccc23)NC1=O [BCY7348, A-(SEQ ID NO: 1)-TNA]",0.0206
